The IC50 is the concentration that inhibits the measured activity by half. The low end stands for greater potency in that assay, the high end for weaker potency in that assay.

The results in this text go back to ChEMBL document CHEMBL1122455, “(Mercaptopropanoyl)indoline-2-carboxylic acids and related compounds as potent angiotensin converting enzyme inhibitors and antihypertensive agents” (J Med Chem, 1983).

For test [1], the target named is T1, Angiotensin-converting enzyme (Rattus norvegicus, UniProt P47820).
T1 sequence (P47820 whole entry): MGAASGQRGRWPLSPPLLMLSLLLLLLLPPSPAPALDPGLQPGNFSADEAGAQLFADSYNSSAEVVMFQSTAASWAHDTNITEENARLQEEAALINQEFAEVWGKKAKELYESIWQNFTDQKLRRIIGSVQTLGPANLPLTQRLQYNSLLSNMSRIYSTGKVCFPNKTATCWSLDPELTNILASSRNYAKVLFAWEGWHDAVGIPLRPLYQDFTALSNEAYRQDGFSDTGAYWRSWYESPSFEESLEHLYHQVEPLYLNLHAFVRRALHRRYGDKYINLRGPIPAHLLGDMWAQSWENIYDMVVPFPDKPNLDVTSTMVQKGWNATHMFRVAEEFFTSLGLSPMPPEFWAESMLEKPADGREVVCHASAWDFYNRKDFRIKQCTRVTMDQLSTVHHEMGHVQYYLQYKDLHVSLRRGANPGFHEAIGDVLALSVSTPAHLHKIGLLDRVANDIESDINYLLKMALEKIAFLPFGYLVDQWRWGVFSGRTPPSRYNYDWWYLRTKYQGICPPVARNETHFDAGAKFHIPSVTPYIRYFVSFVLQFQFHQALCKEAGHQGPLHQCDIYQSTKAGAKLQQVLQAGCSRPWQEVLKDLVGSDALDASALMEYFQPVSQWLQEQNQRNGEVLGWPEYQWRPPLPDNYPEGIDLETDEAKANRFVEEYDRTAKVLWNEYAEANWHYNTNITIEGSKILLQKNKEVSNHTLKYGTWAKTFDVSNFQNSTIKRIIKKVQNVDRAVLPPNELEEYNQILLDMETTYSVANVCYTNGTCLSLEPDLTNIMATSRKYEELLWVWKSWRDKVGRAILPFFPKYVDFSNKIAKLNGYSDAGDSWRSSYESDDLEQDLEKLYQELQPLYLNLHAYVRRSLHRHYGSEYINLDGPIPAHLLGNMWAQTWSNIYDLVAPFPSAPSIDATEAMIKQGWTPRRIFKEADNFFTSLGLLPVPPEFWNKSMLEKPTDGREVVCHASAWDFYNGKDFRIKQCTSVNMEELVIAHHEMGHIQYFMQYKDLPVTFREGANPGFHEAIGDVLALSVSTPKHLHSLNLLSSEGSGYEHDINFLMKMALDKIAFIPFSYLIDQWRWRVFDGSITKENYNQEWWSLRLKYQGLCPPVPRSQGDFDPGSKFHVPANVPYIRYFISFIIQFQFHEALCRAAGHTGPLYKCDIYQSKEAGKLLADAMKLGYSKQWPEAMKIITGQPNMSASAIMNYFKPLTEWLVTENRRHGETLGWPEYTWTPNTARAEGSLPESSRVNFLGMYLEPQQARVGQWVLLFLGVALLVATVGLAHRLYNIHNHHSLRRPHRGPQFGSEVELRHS
Description: In vitro inhibitory activity against Angiotensin I converting enzyme.

Test [2] deals with Rattus norvegicus. Briefly: Dose required to lower blood pressure of SHR by 25 mmHg at 4-h post dose p.o. The test is classed as functional. As to conditions: po.
The test system of test [3] is Rattus norvegicus. Description: Dose required to inhibit 50% of the angiotensin I induced vasopressor response p.o. The test is classed as functional. As to conditions: po, read-out: ID50 (the source's name).

The compound `C=C(C)C(=O)N1c2ccc(OC)cc2CC1C(=O)O` (stereo not drawn) gave an IC50 in test [1] above 1000 µM.

Take `C[C@@H](CSC(=O)c1ccccc1)C(=O)N1c2ccccc2C[C@@H]1C(=O)O` [listing 1 of 2 here]: the IC50 in test [1] is above 100 µM.

On to `C1CCC(NC2CCCCC2)CC1.COc1ccc2c(c1)C[C@@H](C(=O)O)N2C(=O)[C@H](C)CSC(=O)c1ccccc1`, for which the ED25 in test [2] is 20 mg/kg. The compound also returned a half-maximal inhibitory concentration (IC50) in test [1] of 0.042 µM.

In turn, `C[C@H](CSC(=O)c1ccccc1)C(=O)N1c2ccccc2C[C@H]1C(=O)O` [listing 1 of 2 here] returned a 50% inhibitory concentration (IC50) in test [1] of 0.32 µM.

In turn, `COc1ccc2c(c1)CC(C(=O)O)N2C(=O)C(C)CSC(=O)c1ccccc1` (stereo not drawn) [listing 1 of 2 here] yielded an IC50 in test [1] of 0.094 µM.

Compound `CCc1ccc2c(c1)CC(C(=O)O)N2C(=O)C(C)CSC(=O)c1ccccc1` (stereo not drawn) came in with an ED25 in test [2] above 100 mg/kg. For the same compound, 0.03 µM corresponded to half-maximal inhibition in test [1] (IC50).

As to `O=C(SCCC(=O)N1c2ccccc2CC1C(=O)O)c1ccccc1` (stereo not drawn), the ED25 in test [2] is 12.5 mg/kg. In test [3], the ED50 came out at 1.95 mg/kg. Inhibition in test [1] was half-maximal at 0.059 µM (IC50).

In the case of `C[C@@H](CSC(=O)c1ccccc1)C(=O)N1c2ccccc2C[C@@H]1C(=O)O` [listing 2 of 2 here], the IC50 in test [1] is above 100 µM.

In the case of `C[C@@H](CSC(=O)c1ccccc1)C(=O)N1c2ccccc2C[C@H]1C(=O)O` (racemic), the IC50 in test [1] was 3.5 µM.

`C1CCC(NC2CCCCC2)CC1.C[C@@H](CSC(=O)c1ccccc1)C(=O)N1c2ccccc2C[C@H]1C(=O)O`: in test [2], the ED25 was found to be 39 mg/kg. In test [1], this compound came in with an IC50 of 0.54 µM.

As to `C[C@@H](CSC(=O)c1ccccc1)C(=O)N1c2ccccc2C[C@H]1C(=O)O`, in test [1], inhibition was half-maximal at 0.38 µM (IC50).

Take `C=CC(=O)N1c2ccccc2CC1C(=O)O` (stereo not drawn): the IC50 in test [1] was above 1000 µM.

In test [1], `C=C(C)C(=O)N1c2ccccc2C[C@H]1C(=O)O` yielded a half-inhibitory concentration (IC50) above 100 µM.

Regarding `CC(=O)SCC(C)C(=O)N1c2ccccc2CC1C(=O)O` (stereo in doubt; form 1), the IC50 in test [1] turned out to be 15 µM.

Take `CC(=O)SCC(C)C(=O)N1c2ccccc2CC1C(=O)O` (stereo in doubt; form 2): the ED25 in test [2] was 13 mg/kg. This compound came in with an IC50 in test [1] of 0.011 µM.

With `CC(CSC(=O)c1ccccc1)C(=O)N1c2ccccc2CC1C(=O)O` (stereo in doubt; form 2), the concentration for half-maximal inhibition (IC50) in test [1] was found to be 0.078 µM.

Regarding `C[C@@H]1CSC(=O)[C@H]2Cc3ccccc3N2C1=O`, the IC50 in test [1] was 20 µM. This IC50 lies about 260-fold higher than the previous one.

In the case of `C[C@H](CSC(=O)c1ccccc1)C(=O)N1c2ccccc2C[C@H]1C(=O)O` [listing 2 of 2 here], the ED25 in test [2] is 1.03 mg/kg. Further, the ED50 in test [3] was 2 mg/kg. This compound had an IC50 in test [1] of 0.038 µM.

For `C[C@@H]1CSC(=O)[C@@H]2Cc3ccccc3N2C1=O`, the ED25 in test [2] worked out at 2 mg/kg. This compound also displayed an IC50 in test [1] of 0.014 µM.

Take `C[C@H](CSC[C@@H](C)C(=O)N1c2ccccc2C[C@H]1C(=O)O)C(=O)N1c2ccccc2C[C@H]1C(=O)O`: the ED25 in test [2] came to 24 mg/kg. This compound yielded a 50% inhibitory concentration (IC50) in test [1] of 1.3 µM.

As to `C=C(C)C(=O)N1c2ccccc2C[C@@H]1C(=O)O`, the half-inhibitory concentration (IC50) in test [1] is above 1000 µM.

In the case of `CC(CSC(=O)c1ccccc1)C(=O)N1c2ccccc2CC1C(=O)O` (stereo in doubt; form 1), it took 0.41 µM to reach half-maximal inhibition in test [1] (IC50).

As to `C[C@H](CS)C(=O)N1CCC[C@H]1C(=O)O` [CAPTOPRIL], the ED25 in test [2] was found to be 17.8 mg/kg. Besides, the ED50 in test [3] was 0.57 mg/kg.

`COc1ccc2c(c1)CC(C(=O)O)N2C(=O)C(C)CSC(=O)c1ccccc1` (stereo not drawn) [listing 2 of 2 here] showed an IC50 in test [1] of 0.097 µM.

Take `C[C@@H](CSC(=O)c1ccccc1)C(=O)N1c2ccccc2C[C@@H]1C(=O)O` (racemic): the ED25 in test [2] was determined as 100 mg/kg. The midpoint of inhibition in test [1], the IC50, lay at 1.2 µM.

As for `C=C(C)C(=O)N1c2ccccc2CC1C(=O)O` (stereo not drawn), the half-maximal inhibitory concentration (IC50) in test [1] is above 1000 µM.
